Test results published in patent US20230348442A1, “GALECTIN-3 INHIBITING 2-HYDROXYCYCLOALKANE-1-CARBAMOYL DERIVATIVES” (Idorsia Pharmaceuticals Ltd, priority 2020, published 2023).

target: human Gal-3 (hGal-3) (Homo sapiens (Human), UniProt P17931); assay: competitive binding assay: binding of biotinylated hGal-3 to microplate-adsorbed asialofetuin (ASF), spectrophotometric; settings: Activity on hGal-3; mean values of several measurements
Summary of the method: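 Biotin-hGal-3/hGal-1 300-1000 ng/mL + cpd (DMSO dilutions) on ASF-coated plate, 3 h 4° C; wash; SA-HRP 80 ng/mL 1 h 4° C; wash; ABTS. IC50 = mean of several runs. hGal-1 preferably Cys→Ser (all six) mutant.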

Sequence of human Gal-3 (hGal-3) (P17931 whole entry): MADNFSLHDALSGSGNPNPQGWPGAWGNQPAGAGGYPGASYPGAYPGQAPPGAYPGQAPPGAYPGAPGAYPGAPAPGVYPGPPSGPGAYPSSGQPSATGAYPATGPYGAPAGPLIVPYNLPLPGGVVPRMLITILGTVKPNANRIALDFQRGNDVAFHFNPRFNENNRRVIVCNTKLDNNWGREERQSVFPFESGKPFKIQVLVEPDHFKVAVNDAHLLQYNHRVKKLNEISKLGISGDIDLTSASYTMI

Row | SMILES | IC50 [nM]
1 | CO[C@@H]1[C@@H](n2cc(-c3cc(F)c(F)c(F)c3)nn2)[C@@H](O)[C@@H](CO)O[C@H]1C(=O)N(c1cc(Cl)cc(Cl)c1)[C@@H]1CC[C@H]1O [Example 2.1.2R, (2R,3R,4S,5R,6R)-N-(3,5-dichlorophenyl)-5-hydroxy-N-((1R,2R)-2-hydroxycyclobutyl)-6-(hydroxymethyl)-3-methoxy-4-(4-(3,4,5-trifluorophenyl)-1H-1,2,3-triazol-1-yl)tetrahydro-2H-pyran-2-carboxamide] | 110
2 | CO[C@@H]1[C@@H](n2cc(-c3cc(F)cc(Cl)c3)nn2)[C@@H](O)[C@@H](CO)O[C@H]1C(=O)N(c1cc(Br)cc(C#N)c1)[C@@H]1CC[C@H]1O [Example 2.9.5R, (2R,3R,4S,5R,6R)-N-(3-bromo-5-cyanophenyl)-4-(4-(3-chloro-5-fluorophenyl)-1H-1,2,3-triazol-1-yl)-5-hydroxy-N-((1R,2R)-2-hydroxycyclobutyl)-6-(hydroxymethyl)-3-methoxytetrahydro-2H-pyran-2-carboxamide] | 473
3 | CO[C@@H]1[C@@H](n2cc(-c3ccc(Br)c(F)c3F)nn2)[C@@H](O)[C@@H](CO)O[C@H]1C(=O)N(c1cc(Cl)cc(C#N)c1)[C@H]1CCC[C@@H]1O [Example 1.12.4, (2R,3R,4S,5R,6R)-4-(4-(4-bromo-2,3-difluorophenyl)-1H-1,2,3-triazol-1-yl)-N-(3-chloro-5-cyanophenyl)-5-hydroxy-N-((1S,2S)-2-hydroxycyclopentyl)-6-(hydroxymethyl)-3-methoxytetrahydro-2H-pyran-2-carboxamide] | 21.7
4 | CO[C@@H]1[C@@H](n2cc(-c3cc(F)c(F)c(Cl)c3)nn2)[C@@H](O)[C@@H](CO)O[C@H]1C(=O)N(c1cc(Cl)cc(C#N)c1)[C@@H]1CC[C@H]1O [Example 2.7.4R, (2R,3R,4S,5R,6R)-4-(4-(3-chloro-4,5-difluorophenyl)-1H-1,2,3-triazol-1-yl)-N-(3-chloro-5-cyanophenyl)-5-hydroxy-N-((1R,2R)-2-hydroxycyclobutyl)-6-(hydroxymethyl)-3-methoxytetrahydro-2H-pyran-2-carboxamide] | 253
5 | CO[C@@H]1[C@@H](n2cc(-c3ccc(Br)c(F)c3F)nn2)[C@@H](O)[C@@H](CO)O[C@H]1C(=O)N(c1cc(Br)cc(C#N)c1)[C@H]1CCC[C@@H]1O [Example 1.12.5, (2R,3R,4S,5R,6R)-4-(4-(4-bromo-2,3-difluorophenyl)-1H-1,2,3-triazol-1-yl)-N-(3-bromo-5-cyanophenyl)-5-hydroxy-N-((1S,2S)-2-hydroxycyclopentyl)-6-(hydroxymethyl)-3-methoxytetrahydro-2H-pyran-2-carboxamide] | 13.6
6 | CO[C@@H]1[C@@H](n2cc(-c3cc(F)c(F)c(F)c3)nn2)[C@@H](O)[C@@H](CO)O[C@H]1C(=O)N(c1cccc(Cl)c1)[C@H]1CCC[C@@H]1O [Example 1.1.1, (2R,3R,4S,5R,6R)—N-(3-chlorophenyl)-5-hydroxy-N-((1S,2S)-2-hydroxycyclopentyl)-6-(hydroxymethyl)-3-methoxy-4-(4-(3,4,5-trifluorophenyl)-1H-1,2,3-triazol-1-yl)tetrahydro-2H-pyran-2-carboxamide] | 36.5
7 | CO[C@@H]1[C@@H](n2cc(-c3cc(F)cc(Cl)c3)nn2)[C@@H](O)[C@@H](CO)O[C@H]1C(=O)N(c1cc(Br)cc(C#N)c1)[C@H]1CC[C@@H]1O [Example 2.9.5, (2R,3R,4S,5R,6R)-N-(3-bromo-5-cyanophenyl)-4-(4-(3-chloro-5-fluorophenyl)-1H-1,2,3-triazol-1-yl)-5-hydroxy-N-((1S,2S)-2-hydroxycyclobutyl)-6-(hydroxymethyl)-3-methoxytetrahydro-2H-pyran-2-carboxamide] | 123
8 | COc1cc(C#N)cc(N(C(=O)[C@@H]2O[C@H](CO)[C@H](O)[C@H](n3cc(-c4cc(F)cc(Br)c4)nn3)[C@H]2OC)[C@H]2CC[C@@H]2O)c1 [Example 2.10.9, (2R,3R,4S,5R,6R)-4-(4-(3-bromo-5-fluorophenyl)-1H-1,2,3-triazol-1-yl)-N-(3-cyano-5-methoxyphenyl)-5-hydroxy-N-((1S,2S)-2-hydroxycyclobutyl)-6-(hydroxymethyl)-3-methoxytetrahydro-2H-pyran-2-carboxamide] | 224
9 | CO[C@@H]1[C@@H](n2cc(-c3cc(F)c(Cl)c(F)c3)nn2)[C@@H](O)[C@@H](CO)O[C@H]1C(=O)N(c1cc(Br)cc(C#N)c1)[C@@H]1CC[C@H]1O [Example 2.5.5R, (2R,3R,4S,5R,6R)-N-(3-bromo-5-cyanophenyl)-4-(4-(4-chloro-3,5-difluorophenyl)-1H-1,2,3-triazol-1-yl)-5-hydroxy-N-((1R,2R)-2-hydroxycyclobutyl)-6-(hydroxymethyl)-3-methoxytetrahydro-2H-pyran-2-carboxamide] | 184
10 | CO[C@@H]1[C@@H](n2cc(-c3ccc(Br)c(F)c3F)nn2)[C@@H](O)[C@@H](CO)O[C@H]1C(=O)N(c1cc(Br)cc(C#N)c1)[C@H]1CC[C@@H]1O [Example 2.12.5, (2R,3R,4S,5R,6R)-4-(4-(4-bromo-2,3-difluorophenyl)-1H-1,2,3-triazol-1-yl)-N-(3-bromo-5-cyanophenyl)-5-hydroxy-N-((1S,2S)-2-hydroxycyclobutyl)-6-(hydroxymethyl)-3-methoxytetrahydro-2H-pyran-2-carboxamide] | 25.9
11 | CO[C@@H]1[C@@H](n2cc(-c3ccc(Cl)c(Cl)c3)nn2)[C@@H](O)[C@@H](CO)O[C@H]1C(=O)N(c1cc(Cl)cc(C#N)c1)[C@H]1CC[C@@H]1O [Example 2.8.4, (2R,3R,4S,5R,6R)-N-(3-chloro-5-cyanophenyl)-4-(4-(3,4-dichlorophenyl)-1H-1,2,3-triazol-1-yl)-5-hydroxy-N-((1S,2S)-2-hydroxycyclobutyl)-6-(hydroxymethyl)-3-methoxytetrahydro-2H-pyran-2-carboxamide] | 131
12 | CO[C@@H]1[C@@H](n2cc(-c3cc(F)c(Cl)c(Cl)c3)nn2)[C@@H](O)[C@@H](CO)O[C@H]1C(=O)N(c1cc(Br)cc(C#N)c1)[C@H]1CC[C@@H]1O [Example 2.17.5, (2R,3R,4S,5R,6R)-N-(3-bromo-5-cyanophenyl)-4-(4-(3,4-dichloro-5-fluorophenyl)-1H-1,2,3-triazol-1-yl)-5-hydroxy-N-((1S,2S)-2-hydroxycyclobutyl)-6-(hydroxymethyl)-3-methoxytetrahydro-2H-pyran-2-carboxamide] | 56
13 | CO[C@@H]1[C@@H](n2cc(-c3cc(F)c(F)c(Cl)c3)nn2)[C@@H](O)[C@@H](CO)O[C@H]1C(=O)N(c1cc(Br)cc(C#N)c1)[C@H]1CCC[C@@H]1O [Example 1.7.5, (2R,3R,4S,5R,6R)-N-(3-bromo-5-cyanophenyl)-4-(4-(3-chloro-4,5-difluorophenyl)-1H-1,2,3-triazol-1-yl)-5-hydroxy-N-((1S,2S)-2-hydroxycyclopentyl)-6-(hydroxymethyl)-3-methoxytetrahydro-2H-pyran-2-carboxamide] | 21.2
14 | CO[C@@H]1[C@@H](n2cc(-c3cc(F)c(F)c(F)c3)nn2)[C@@H](O)[C@@H](CO)O[C@H]1C(=O)N(c1cccc(Br)c1)[C@H]1CC[C@@H]1O [Example 2.1.10, (2R,3R,4S,5R,6R)-N-(3-bromophenyl)-5-hydroxy-N-((1S,2S)-2-hydroxycyclobutyl)-6-(hydroxymethyl)-3-methoxy-4-(4-(3,4,5-trifluorophenyl)-1H-1,2,3-triazol-1-yl)tetrahydro-2H-pyran-2-carboxamide] | 108
15 | Cc1c(F)cc(-c2cn([C@H]3[C@@H](O)[C@@H](CO)O[C@@H](C(=O)N(c4cc(Cl)cc(C#N)c4)[C@H]4CCC[C@@H]4O)[C@@H]3O)nn2)cc1F [Example 1H.4.4, (2R,3R,4S,5R,6R)-N-(3-chloro-5-cyanophenyl)-4-(4-(3,5-difluoro-4-methylphenyl)-1H-1,2,3-triazol-1-yl)-3,5-dihydroxy-N-((1S,2S)-2-hydroxycyclopentyl)-6-(hydroxymethyl)tetrahydro-2H-pyran-2-carboxamide] | 19.3
16 | N#Cc1cc(Cl)cc(N(C(=O)[C@@H]2O[C@H](CO)[C@H](O)[C@H](n3cc(-c4cc(F)c(F)c(F)c4)nn3)[C@H]2O)[C@H]2CC[C@@H]2O)c1 [Example 2H.1.4, (2R,3R,4S,5R,6R)-N-(3-chloro-5-cyanophenyl)-3,5-dihydroxy-N-((1S,2S)-2-hydroxycyclobutyl)-6-(hydroxymethyl)-4-(4-(3,4,5-trifluorophenyl)-1H-1,2,3-triazol-1-yl)tetrahydro-2H-pyran-2-carboxamide] | 33.8
17 | CC(=O)O[C@@H]1[C@@H](n2cc(-c3cc(F)c(C)c(F)c3)nn2)[C@@H](O)[C@@H](CO)O[C@H]1C(=O)N(c1cc(Cl)cc(C#N)c1)[C@H]1CCC[C@@H]1O [Example 1A.4.4, (2R,3R,4S,5R,6R)-2-((3-chloro-5-cyanophenyl)((1S,2S)-2-hydroxycyclopentyl)carbamoyl)-4-(4-(3,5-difluoro-4-methylphenyl)-1H-1,2,3-triazol-1-yl)-5-hydroxy-6-(hydroxymethyl)tetrahydro-2H-pyran-3-yl acetate] | 26.8
18 | COc1cc(-c2cn([C@H]3[C@@H](O)[C@@H](CO)O[C@@H](C(=O)N(c4cc(Br)cc(C#N)c4)[C@H]4CCC[C@@H]4O)[C@@H]3OC)nn2)cc(F)c1F [Example 1.3.5, (2R,3R,4S,5R,6R)-N-(3-bromo-5-cyanophenyl)-4-(4-(3,4-difluoro-5-methoxyphenyl)-1H-1,2,3-triazol-1-yl)-5-hydroxy-N-((1S,2S)-2-hydroxycyclopentyl)-6-(hydroxymethyl)-3-methoxytetrahydro-2H-pyran-2-carboxamide] | 25.4
19 | CO[C@@H]1[C@@H](n2cc(-c3cc(F)c(Cl)c(F)c3)nn2)[C@@H](O)[C@@H](CO)O[C@H]1C(=O)N(c1cc(Br)cc(C#N)c1)[C@H]1CCC[C@@H]1O [Example 1.5.5, (2R,3R,4S,5R,6R)-N-(3-bromo-5-cyanophenyl)-4-(4-(4-chloro-3,5-difluorophenyl)-1H-1,2,3-triazol-1-yl)-5-hydroxy-N-((1S,2S)-2-hydroxycyclopentyl)-6-(hydroxymethyl)-3-methoxytetrahydro-2H-pyran-2-carboxamide] | 33.9
